Measurements from ChEMBL document CHEMBL1134138, “Phytoestrogens from the roots of Polygonum cuspidatum (Polygonaceae): structure-requirement of hydroxyanthraquinones for estrogenic activity” (Bioorg Med Chem Lett, 2001).

Experiments:
Estrogen receptor beta [1] = target: T1, Estrogen receptor beta (Homo sapiens, UniProt Q92731)
Description: (§1) Inhibition of binding of 17 beta-estradiol to human Estrogen receptor beta

Estrogen receptor beta [2] = target: T1, Estrogen receptor beta; remark: listed apart in the source
Description: as §1

Estrogen receptor [3] = target: T2, Estrogen receptor (Homo sapiens, UniProt P03372)
T2 sequence (P03372 whole entry): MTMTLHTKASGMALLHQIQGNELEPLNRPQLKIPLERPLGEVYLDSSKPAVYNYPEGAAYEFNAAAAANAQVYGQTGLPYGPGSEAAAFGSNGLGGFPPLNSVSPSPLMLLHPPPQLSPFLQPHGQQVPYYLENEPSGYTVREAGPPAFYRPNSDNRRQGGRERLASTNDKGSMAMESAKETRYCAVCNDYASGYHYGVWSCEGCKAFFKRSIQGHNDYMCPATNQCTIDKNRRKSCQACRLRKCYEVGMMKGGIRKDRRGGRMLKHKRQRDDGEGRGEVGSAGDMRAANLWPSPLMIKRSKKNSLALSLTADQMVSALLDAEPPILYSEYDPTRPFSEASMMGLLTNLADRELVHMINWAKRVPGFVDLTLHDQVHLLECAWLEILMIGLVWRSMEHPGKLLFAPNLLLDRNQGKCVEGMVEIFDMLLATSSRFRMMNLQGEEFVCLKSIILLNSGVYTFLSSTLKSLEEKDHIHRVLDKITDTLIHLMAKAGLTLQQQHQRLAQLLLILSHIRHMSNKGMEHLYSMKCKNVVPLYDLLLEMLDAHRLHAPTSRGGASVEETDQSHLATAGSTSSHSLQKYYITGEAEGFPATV
Description: (§2) Inhibition of binding of 17 beta-estradiol to human Estrogen receptor alpha

Estrogen receptor [4] = target: T2, Estrogen receptor; remark: listed apart in the source
Description: as §2

T1 sequence (Q92731 whole entry): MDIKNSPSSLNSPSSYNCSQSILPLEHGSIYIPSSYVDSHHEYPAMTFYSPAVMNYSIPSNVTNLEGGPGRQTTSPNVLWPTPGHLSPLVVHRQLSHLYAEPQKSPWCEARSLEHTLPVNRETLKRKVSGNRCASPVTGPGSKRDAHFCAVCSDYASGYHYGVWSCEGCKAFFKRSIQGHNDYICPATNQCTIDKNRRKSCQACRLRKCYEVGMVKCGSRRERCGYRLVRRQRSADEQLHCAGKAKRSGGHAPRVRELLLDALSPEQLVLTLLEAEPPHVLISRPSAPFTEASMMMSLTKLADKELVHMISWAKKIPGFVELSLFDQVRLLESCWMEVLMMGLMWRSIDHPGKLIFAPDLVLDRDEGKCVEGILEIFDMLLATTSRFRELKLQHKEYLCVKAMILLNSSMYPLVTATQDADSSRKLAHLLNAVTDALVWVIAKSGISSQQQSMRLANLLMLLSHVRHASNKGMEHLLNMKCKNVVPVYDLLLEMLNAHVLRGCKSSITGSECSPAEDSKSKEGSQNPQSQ

| IC50 (Estrogen receptor beta [1]) [µM] | Ki (Estrogen receptor beta [2]) [µM] | IC50 (Estrogen receptor [3]) [µM] | Ki (Estrogen receptor [4]) [µM] | Structure (SMILES) |
| --- | --- | --- | --- | --- |
| 2.4 | 0.69 | 1.1 | 0.31 | O=C1c2ccc(O)cc2C(=O)c2ccc(O)cc21 |
| 62 | 18 | 20 | 5.7 | Cc1cc(O)c2c(c1)C(=O)c1cc(O)cc(O[C@@H]3O[C@H](CO)[C@@H](O)[C@H](O)[C@H]3O)c1C2=O [EMODIN 8-O-BETA-D-GLUCOPYRANOSIDE] |

| Structure (SMILES) | IC50 (Estrogen receptor beta [1]) [µM] | Ki (Estrogen receptor beta [2]) [µM] | IC50 (Estrogen receptor [3]) [µM] | Ki (Estrogen receptor [4]) [µM] |
| --- | --- | --- | --- | --- |
| Cc1cc(O)c2c(c1)C(=O)c1cc(O)cc(O)c1C2=O [EMODIN] | 5.2 | 1.5 | – | – |
